From patent US7432386B2, “Diarylbutadiene-substituted methyltrialkylsilanes and photoprotective compositions comprised thereof” (L'Oreal, priority 2003, dated 2008) come the findings set out here.

The data set is described as follows: UV absorption spectrum in ethanol. It counts as physicochemical. Particulars: for UV E1% / UV εmax: at λmax.

For the compound `C[Si](C)(C)COC(=O)C(=CC=C(c1ccccc1)c1ccccc1)C(=O)OC[Si](C)(C)C` [Example 1], the “UV λmax” value is on record as 333 nm, the “UV E1%” value came out at 614 and the “UV εmax” value was 28 610.

Consider `C[Si](C)(C)COC(=O)/C(C#N)=C\C=C(c1ccccc1)c1ccccc1` [Example 3, monotrimethylsilanylmethyl ester of 2-cyano-5,5-diphenyl-2,4-pentadienoic acid], for which the “UV λmax” value came to 360 nm, the “UV E1%” value worked out at 800 and the “UV εmax” value is listed as 28 880.

As to `CCOC(=O)/C(=C/C=C(c1ccccc1)c1ccccc1)C(=O)OC[Si](C)(C)C` [Example 2], the “UV λmax” value came to 334 nm, the “UV E1%” value is recorded as 692 and the “UV εmax” value is listed as 28 270.
